Results as given in PMC6018403 (Frontiers in Pharmacology, 2018).
“Also recorded” adds a separate entry of the source.

Legend:
P-glycoprotein (P-gp) = target: T1, P-glycoprotein (P-gp) (Homo sapiens, UniProt P08183); experiment: P-gp inhibitor and inducer experiments on Caco-2 cell monolayer; format: in vitro ADME; conditions: for interaction with P-gp: Caco-2 cell monolayer
T1 construct: host or cells: Caco-2 (human colon adenocarcinoma) monolayers, passages 24-35
Experimental: The final concentration of GQD, GQD−GC, and Huang-Lian water extracts were 32, 28, and 6 μg/mL, respectively. […]
containing glucose (25 mM) and HEPES (10 mM). The final concentration of berberine was 5 µM. The final concentration of DMSO was below 1% (v/v). […]
inducer of Caco-2 cells, respectively. For the inhibitor experiments, the Caco-2 cells were cultivated in DMEM until the 21st day. After removal of the medium, the cells were incubated for 30 minutes with HBSS containing 5 µM of verapamil. For the inducer experiments, the cells were cultivated in DMEM until the 18th day, and then […]
was removed on the 21st day, and the cells were then incubated for 30 min with HBSS.
Berberine and glycyrrhizic acid were added to the system following HBSS incubation.
For all bidirectional transport assays, samples (300 µL) were collected after 30, 60, 90, […]
with an equal volume of HBSS. The samples were freeze-dried and then dissolved in 300 µL of methanol. The solutions were filtered through 0.22-µm membranes before […]
3. Inhibitor and inducer experiments […]
respectively. For the inhibition experiments, Caco-2 cells were cultivated in DMEM until the 21st day. After removal of the medium, the cells were incubated for 30 minutes with HBSS containing verapamil (5 µM). For induction experiments, the cells were cultivated in DMEM until the 18th day, and then cultivated in DMEM […]
The medium was removed on the 21st day, and the cells were then incubated for 30 min with HBSS. Berberine and glycyrrhizic acid were added to the system following HBSS incubation.

db/db mice = experiment: Evaluation of anti-diabetic effects in db/db mice; format: in vivo; conditions: oral, 4 weeks; for anti-diabetic effects: BER 50 mg/kg/d, GLY 80 mg/kg/d alone, 50 or 80 mg/kg/d with BER
Experimental: Eight-week-old male db/db mice (30–35 g) were used, and the details were described in Supplemental Data. The mice were randomly divided into eight groups. Mice were orally administered with metformin (100 mg/kg/d, n = 6), berberine (50 mg/kg/d, n = 6), glycyrrhizic acid (80 mg/kg/d, n = 6), berberine (50 mg/kg/d) combined with low-dose of glycyrrhizic acid (50 mg/kg/d, n = 6), berberine (50 mg/kg/d) combined with high-dose of glycyrrhizic acid (80 mg/kg/d, n = 6), berberine (50 mg/kg/d) combined with Gan-Cao (2.2 g/kg/d, n = 7), and GQD (18.2 g/kg/d, n = 7) for 4 weeks. For the control group, the […] were administered with an equal volume of water. On day 28, after fasted for 12 h, retro-orbital blood samples were collected, stand for 1 h, and then centrifuged (6,000 rpm, 4°C) for 20 min to obtain serum. Biochemical indicators such as blood glucose and insulin were determined on a Mindray BS-800 analyzer (Mindray Bio-Medical Electronics Co.).
Herbal materials and extracts.
The four component herbs, Puerariae Lobatae Radix (Ge-Gen, GG), Scutellariae Radix (Huang-Qin, HQ), Coptidis Rhizoma (Huang-Lian, HL), and Glycyrrhizae Radix et Rhizoma Praeparata cum Melle (Gan-Cao, GC) were purchased from Tianheng Pharmacy. GQD was prepared by decocting the four component herbs […]
of water for three times (1.5 h, 1.5 h, 0.5 h) to obtain the extracts, followed by a pre-extraction of Ge-Gen using 200 mL of water for 0.5 h. The decoctions were combined, filtered, and concentrated in vacuum at 50 °C. GQD-GC was prepared using the same procedure, except that Gan-Cao was removed from the formula. Final concentration of the GQD-GC extract was equivalent to 1.0 g of the crude drugs per mL. For single herb extracts, the herbs were decocted in 8-fold volume of water for three times (1.5 h, 1.5 h, 0.5 h) and then concentrated. […]
For anti-diabetic study, Eight-week-old male db/db mice (30–35 g) were purchased from Card Vince Laboratory animal Co., Ltd. The mice were bred in a cage (318 × 202 × 135 mm) in a breeding room at 25 °C, 60 ± 5% humidity, and a 12-h dark-light […]
On day 28, db/db mice were fasted for 12 h, and blood was collected and centrifuged to obtain serum for insulin and biochemical tests. After that, 150 µL of plasma was prepared by adding 150 µL of internal standard solution, 150 µL of methanol, and 300 µL of acetonitrile. The processing method was consistent with sample preparation for […]
3.1. Optimization of chromatographic separation
Different solvents (67% methanol, and 100% methanol) were compared to effectively extract both hydrophilic and hydrophobic compounds of GQD. […]
better extraction recovery for most compounds. […]

T1 sequence (P08183 whole entry): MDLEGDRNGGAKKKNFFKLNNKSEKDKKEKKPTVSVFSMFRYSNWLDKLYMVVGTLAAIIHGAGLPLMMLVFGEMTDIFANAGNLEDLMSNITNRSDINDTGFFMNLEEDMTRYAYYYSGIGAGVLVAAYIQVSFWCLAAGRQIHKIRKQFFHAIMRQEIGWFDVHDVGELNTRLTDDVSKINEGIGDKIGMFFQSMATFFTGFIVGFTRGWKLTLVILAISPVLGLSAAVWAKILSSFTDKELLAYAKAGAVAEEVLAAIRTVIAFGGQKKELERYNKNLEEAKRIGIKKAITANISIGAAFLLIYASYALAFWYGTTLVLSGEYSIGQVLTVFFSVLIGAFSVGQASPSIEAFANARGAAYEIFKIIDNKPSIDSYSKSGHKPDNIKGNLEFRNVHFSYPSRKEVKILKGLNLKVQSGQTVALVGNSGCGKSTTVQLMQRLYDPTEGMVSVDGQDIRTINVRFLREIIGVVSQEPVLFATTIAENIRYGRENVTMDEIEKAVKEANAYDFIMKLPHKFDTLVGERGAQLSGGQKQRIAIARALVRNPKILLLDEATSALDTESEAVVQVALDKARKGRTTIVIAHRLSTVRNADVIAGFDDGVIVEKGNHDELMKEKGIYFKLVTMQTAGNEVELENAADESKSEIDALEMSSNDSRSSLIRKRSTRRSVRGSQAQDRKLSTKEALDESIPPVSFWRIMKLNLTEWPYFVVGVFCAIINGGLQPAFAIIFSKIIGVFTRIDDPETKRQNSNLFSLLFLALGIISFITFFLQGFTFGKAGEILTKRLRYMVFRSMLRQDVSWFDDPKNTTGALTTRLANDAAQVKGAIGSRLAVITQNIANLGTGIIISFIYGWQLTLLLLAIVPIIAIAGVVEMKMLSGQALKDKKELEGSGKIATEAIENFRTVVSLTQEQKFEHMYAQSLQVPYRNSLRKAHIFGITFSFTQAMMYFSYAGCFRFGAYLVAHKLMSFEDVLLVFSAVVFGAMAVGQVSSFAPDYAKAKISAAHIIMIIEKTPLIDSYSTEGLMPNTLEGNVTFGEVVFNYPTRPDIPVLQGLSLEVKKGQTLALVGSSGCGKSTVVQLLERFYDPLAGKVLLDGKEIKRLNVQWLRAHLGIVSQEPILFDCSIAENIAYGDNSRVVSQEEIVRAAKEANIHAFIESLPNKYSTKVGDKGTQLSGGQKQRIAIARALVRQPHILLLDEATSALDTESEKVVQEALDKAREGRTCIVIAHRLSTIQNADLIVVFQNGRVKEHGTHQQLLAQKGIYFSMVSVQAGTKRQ

Row | SMILES | interaction with P-gp (P-glycoprotein (P-gp); listed as GLY) | counteraction of the impact of rifampicin on BER transport (P-glycoprotein (P-gp); GLY 5 μM, especially after 150 min treatment) | anti-diabetic effects (db/db mice; listed as GLY) | interaction with P-gp (P-glycoprotein (P-gp)) | anti-diabetic effects (db/db mice; listed as BER) | ALT and AST levels (liver damage) (db/db mice; serum)
1 | CC1(C)[C@@H](O[C@H]2O[C@H](C(=O)O)[C@@H](O)[C@H](O)[C@H]2O[C@@H]2O[C@H](C(=O)O)[C@@H](O)[C@H](O)[C@H]2O)CC[C@]2(C)[C@H]3C(=O)C=C4[C@@H]5C[C@@](C)(C(=O)O)CC[C@]5(C)CC[C@@]4(C)[C@]3(C)CC[C@@H]12 [Compound 36, glycyrrhizic acid] | inhibiting P-glycoprotein; also recorded: P-gp inhibitor | could counteract the impact of 5 or 20, but not 50 μM rifampicin | did not show observable anti-diabetic effects | – | – | –
2 | COc1ccc2cc3[n+](cc2c1OC)CCc1cc2c(cc1-3)OCO2 [Compound 24, berberine] | – | – | – | P-gp substrate | confirmed its anti-diabetic activities; also recorded: significant anti-diabetic and hypolipidemic activities | decreasing
